What was measured:
[1] = stability of PR-1381 in solution; format: physicochemical
Method: Characteristic signals seen in an ^1 H-NMR-spectrum recorded immediately after dissolution of PR-1381 in deuterochloroform are listed in table E.
When the solution in deuterochloroform is allowed to stand at room temperature, these initial signals gradually disappear while methanol is liberated from the molecule, and finally after 10 hours, a spectrum is observed which is identical with that obtained from PR-1350 complex in deuterochloroform, except for an extra signal at δ=3.48, probably due to methanol liberated during the transformation of PR-1381 to the PR-1350 complex.

microorganisms = assay: anti-microbial effect; format: cell-based

Structure (SMILES): COC1(O)C(O)OC(CC2(C)C(C)CCC3(C)C(C=O)=CCCC32)C12CO2 (stereo not shown) [PR-1381]
- time after which spectrum is identical with that of PR-1350 complex ([1]; deuterochloroform, room temperature): 10 h
- decomposition in solution ([1]; in solution): decomposes to the PR-1350 complex with liberation of methanol
- antibiotic activity (microorganisms): antibiotically active
- anti-microbial effect compared with PR-1350 complex (microorganisms; qualitatively and quantitatively): identical with that of the PR-1350 complex

From patent US4576961A, “Antibiotic heterocyclic oxygen compounds and use” (priority 1980, dated 1986)
